For one experiment, the target named is T1, Insrβ (Mus musculus, UniProt P15208).
T1 construct: gastrocnemius skeletal muscle and liver samples were collected and stored at −80° C; from tissue; host or cells: gastrocnemius skeletal muscle (A22) and liver (A24) of Lepr db/db mice
Description: ELISA of phospho-Insrβ in livers of Lepr^db/db mice. It is filed as in vivo. Particulars: 0.136 mg/kg ip daily. Here is the method:
Male Lepr^db/db mice (C57BL/6J strain, purchased from The Jackson Laboratory) at postnatal day 38 were intraperitoneally injected daily with physiological saline ([…]) containing 0.2% DMSO, or 0.136 mg of Compound #43 per kilogram body weight, diluted in the sterile physiological saline) for 52 days. After the treatment, gastrocnemius skeletal muscle and liver samples were collected and stored at −80° C.
Frozen skeletal muscle and liver tissues were minced in sterile ice-old PBS containing complete proteinase and phosphatase inhibitors (Thermo-Fisher Scientific, Waltham, Mass.) and subjected to homogenization using a tissue homogenizer (Thermo-Fisher Scientific, Waltham, Mass.). These tissue homogenates were diluted in Themo-Fisher's premade RIPA buffer (1 part homogenate/2 part of RIPA buffer) containing complete proteinase/phosphatase inhibitors to extract the proteins. Proteins in the homogenates were extracted in RIPA buffer at 4° C. overnight. These overnight-extracted protein/tissue lysates were centrifuged at 12000×g for 30 min at 4° C., and the protein levels in the supernatant of these tissue lysates were determined using the Pierce Micro-BCA protein assay kit (Thermo Scientific-Piece Biotechnology, Rockford, Ill.) according to the manufacturer's protocol. […]

The subject of the next experiment is Glut4. Description: QRT-PCR of Glut4 mRNA in livers of Lepr^db/db mice. It is filed as in vivo, mouse. Particulars: 25 μg selenium/kg ip daily, 52 days (FIG. 15). Here is the method: Male Lepr^db/db mice (C57BL/6J strain, purchased from The Jackson Laboratory) at postnatal day 38 were intraperitoneally injected daily with physiological saline ([…]) containing 0.2% DMSO, Compound #43, or Compound #50 (25 μg selenium of each compound per kilogram body weight, diluted in sterile physiological saline) for 52 days. After treatment, livers were collected and subjected to RNA analysis.
Total liver RNA from saline- or Compound #43-treated Lepr^db/db mice was isolated using a Qiagen RNAeasy RNA isolation kit according to the Manufacturer's protocol. Total RNA from cultured cells was isolated using Trizol (Invitrogen) according to the manufacturer's protocol, and then incubated with DNase I to remove any potential contaminating genomic DNA. RNA samples were subjected to real-time PCR analysis using Applied-Bioscience's RT kit and predesigned Taqman probes (Invitrogen), as described previously (Lan et al EMBO J 2003). Data were normalized by Actin B (Actb) mRNA levels in each sample and are presented as mean±SEM of 3-5 samples.

The next experiment concerns STZ-induced T1D mice. Kind of experiment: Blood glucose in STZ-induced type 1 diabetic mice after acute treatment. It is filed as in vivo, mouse. Particulars: 5.4 mg/kg ip, fasted. How it is done: Five-week-old C57/BL6 male mice were intraperitoneally injected with streptozotocin (STZ, 55 mg/kg mouse body weigh) daily for 5 days, and then housed in the vivarium for another 14 days for recovery. Blood glucose levels of these mice were measured using a glucometer. Those animals with a blood glucose level higher than 500 mg/dL were considered to be type I diabetic (T1D). These T1D mice with unfasted blood glucose levels between 500-550 mg/dL were fasted overnight and injected intraperitoneally with Compound #43 at a dose of 5.4 mg/kg body weight or physiological saline containing 2% DMSO (Compound #43 stock solvent). At 1, 2 and 3 hours post-injection, blood glucose levels in these mice were measured using the glucometer.

A further experiment relates to Lepr^db/db mice. Kind of experiment: Chronic treatment: fasting blood glucose and HbA1c in Lepr^db/db mice. It is filed as in vivo, mouse. Here is the method: Male Lepr^db/db mice at 38 days of age were intraperitoneally (ip) injected daily with physiological saline ([…]) containing 0.2% DMSO, Compound #C, Compound #50, Compound #68, and/or Compound #43 (25 μg selenium or sulfur equivalents of each compound per kilogram body weight, diluted in sterile physiological saline) for periods ranging from 43-90 days. Body weights of the above treated mice were recorded daily using a balance and any visible abnormal animal gross morphology and walking behavior were monitored daily. After the treatments, animals were fasted overnight and then subjected to blood glucose or HbA1c assays, glucose tolerance tests or tissue collections.
For comparative studies of any potential anti-diabetic effects of Compounds #43, #69 and #70, male Lepr^db/db mice at 41 days of age were intraperitoneally (ip) injected daily with physiological saline ([…]) containing 0.2% DMSO, Compound #43, Compound #69, or Compound #70 (25 μg selenium of each compound per kilogram body weight, diluted in sterile physiological saline). After the treatments for 43 days, animals were fasted overnight and then subjected to blood glucose and glucose tolerance tests. After daily treatments of these compounds for 90 days, sera from these animals were collected and then subjected to blood HbA1c assays.
After treatment with physiological saline or compounds or after the injection of a bolus of glucose, a small drop of blood from each mouse was collected by snipping the mouse tail tip. Blood glucose levels were determined using a Glucometer with a maximum capability for glucose measurement of 600 mg/dL.
After saline or compound treatments, a small drop of blood from the mouse tail was collected in an EDTA-coated eppendorf tube (to prevent blood coagulation) (Fisher Scientific), and then subjected to a HbA1c assay using the Crystal Chem's or Kamiya's mouse glycated hemoglobin A1c ELISA kit, according to the manufacturer's protocol. Also after the final treatments, mouse serum was collected and subjected to HbA1c assay using the Kamiya Biomeidcal Company's mouse HbA1c kit, according to the manufacturer's protocol.

[1] abbreviates: 25 μg selenium/kg ip daily for 43 days from 41 days of age (FIG. 5).
Setting [2] is: 25 μg selenium/kg ip daily, 3 months (FIG. 4).

T1 sequence (P15208 753-1372 limits assumed): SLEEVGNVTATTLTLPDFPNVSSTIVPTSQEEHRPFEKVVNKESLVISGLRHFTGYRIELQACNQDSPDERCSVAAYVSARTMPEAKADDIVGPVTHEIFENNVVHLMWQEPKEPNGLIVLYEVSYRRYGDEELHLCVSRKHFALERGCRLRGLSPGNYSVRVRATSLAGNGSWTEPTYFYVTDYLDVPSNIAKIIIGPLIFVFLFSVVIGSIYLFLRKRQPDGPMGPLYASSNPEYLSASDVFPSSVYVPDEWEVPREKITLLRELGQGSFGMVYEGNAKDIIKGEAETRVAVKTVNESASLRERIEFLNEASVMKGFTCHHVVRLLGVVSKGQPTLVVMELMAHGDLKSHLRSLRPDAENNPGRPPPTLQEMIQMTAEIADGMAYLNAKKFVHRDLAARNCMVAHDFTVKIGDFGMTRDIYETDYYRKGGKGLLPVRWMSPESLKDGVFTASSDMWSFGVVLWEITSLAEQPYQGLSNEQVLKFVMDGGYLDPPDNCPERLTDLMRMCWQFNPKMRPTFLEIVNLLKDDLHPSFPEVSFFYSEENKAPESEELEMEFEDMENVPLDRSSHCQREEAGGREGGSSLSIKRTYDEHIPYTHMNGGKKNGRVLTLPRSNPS
T1 sequence (P15208 28-748 partner limits assumed): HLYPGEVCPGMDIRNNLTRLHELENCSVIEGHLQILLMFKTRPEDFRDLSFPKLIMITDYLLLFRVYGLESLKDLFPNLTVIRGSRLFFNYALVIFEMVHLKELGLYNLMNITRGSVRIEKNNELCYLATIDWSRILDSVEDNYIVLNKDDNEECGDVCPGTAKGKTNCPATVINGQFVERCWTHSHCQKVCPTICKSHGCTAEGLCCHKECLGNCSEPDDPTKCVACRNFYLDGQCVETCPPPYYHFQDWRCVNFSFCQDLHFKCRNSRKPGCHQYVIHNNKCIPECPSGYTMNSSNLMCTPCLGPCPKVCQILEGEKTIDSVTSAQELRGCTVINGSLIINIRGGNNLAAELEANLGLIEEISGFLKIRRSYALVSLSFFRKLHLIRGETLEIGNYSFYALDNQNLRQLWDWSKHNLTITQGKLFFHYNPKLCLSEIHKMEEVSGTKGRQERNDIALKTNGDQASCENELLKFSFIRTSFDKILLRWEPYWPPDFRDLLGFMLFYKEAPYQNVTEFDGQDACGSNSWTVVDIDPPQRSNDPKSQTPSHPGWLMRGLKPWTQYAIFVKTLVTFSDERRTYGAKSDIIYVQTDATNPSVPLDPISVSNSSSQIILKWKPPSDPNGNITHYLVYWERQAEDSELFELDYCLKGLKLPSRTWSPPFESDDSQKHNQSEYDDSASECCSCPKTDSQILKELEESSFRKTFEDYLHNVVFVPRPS

Take `C[Se]C[C@H]1O[C@@H](n2cnc3c(N)ncnc32)C(OC(C)=O)C1OC(C)=O` (stereo partly shown) [Compound #43, Adenosine, 5′-Se-methyl-5′-selino-, 2′,3′-diacetate]: on Insrβ (52 days (FIG. 22A)), the “increase of phosphorylated Insrβ at Tyrosine 1146 in liver” value is listed as around 2.9 fold. Also, on Insrβ (52 days (FIG. 22B)), the “increase of phosphorylated Insrβ at Tyrosine 1150/1151 in liver” value was around 2.95 fold. In addition, in the experiment with Glut4, the “increase in Glut4 mRNA expression levels in the liver” value was 5 fold. The blood glucose levels result in the experiment on STZ-induced T1D mice (2 and 3 hours (FIG. 28)) is listed as “significant decrease in blood glucose levels”. In the experiment on STZ-induced T1D mice (1 hour (FIG. 28)), the blood glucose levels entry is recorded as “trend of decreased blood glucose levels”. In addition, the “effect on fasting blood glucose levels” value with Lepr^db/db mice (25 μg selenium or sulfur/kg ip daily, 3 months (FIG. 4)) is “statistically significant decrease in fasting blood glucose levels”. In addition, in the experiment with Lepr^db/db mice (setting [1]), the “decrease in fasting blood glucose levels vs saline” value is listed as around 35% and the “fasting blood glucose levels” value is listed as 188 mg/dL. The “effect on HbA1c levels” value with Lepr^db/db mice (25 μg selenium/kg ip daily for 90 days from 41 days of age (FIG. 5)) is reported as “significant decrease of HbA1c levels”. In addition, in the experiment with Lepr^db/db mice (25 μg selenium/kg ip daily from day 38, measured at 90 days of age (FIG. 3)), the “reduction in serum HbA1c levels compared to saline” value is reported as around 20%. Further, in the experiment on Lepr^db/db mice (25 μg selenium/kg ip daily from day 38, measured at day 81 (FIG. 3)), the “reduction of fasting blood glucose levels compared to controls” value is “about 45%”. Also, in the experiment with Lepr^db/db mice (setting [2]), the “decrease of blood HbA1c levels compared to saline” value is listed as “about 30%” and the fasting glucose levels result was “about 135 mg/dL”.

The record behind these values is patent publication US11613552B2, “Pharmaceutical agents, compositions, and methods relating thereto” (Alltech, Inc., priority 2017, dated 2023).
